# According to patent US7629371B2, “Cosmetic use of a composition containing at least one oxazoline, serving as an active substance, as a slimming product and/or for preventing and/or treating cellulite” (Laboratoires Expanscience, priority 2003, dated 2009):
# Key:
# normal human adipocytes [1] = test: Evaluation of lipid synthesis in adipocytes in suspension (Example 7): incorporation of radiolabelled acetate into lipids; type: cell-based; settings: for decrease of the incorporation of acetate into lipids, % of the control: FIG. 2
# Protocol: A solution of OX100 (10^−2 M in DMSO) was tested.
# Culture Conditions: They are identical to those of example 6.
# The adipocytes in suspension are incubated for 1 h at 37° C. in the presence of various concentrations of OX100 (10, 20 and 100 μMO). A volume of 10 ml of radiolabelled acetate (2-C^14, 60.87 μCi/ml, Amersham) is subsequently added to the preparation. After incubation for 4 h, the lipids are extracted according to the procedure described by Bligh and Dyer (methanol/chloroform/water), and evaporated under nitrogen, and the radioactivity incorporated is quantified by liquid scintillation (Rackbeta LKB 1210).
# normal human adipocytes [2] = test: Evaluation of lipid synthesis in adipocytes in suspension (Example 6): incorporation of radiolabelled acetate into lipids; type: cell-based; settings: for decrease of the incorporation of acetate, % of the control: FIG. 1
# Protocol: A solution of OX100, diluted to a concentration of 10^−2 M in DMSO, was tested.
# Normal human adipocytes were isolated from abdominal biopsies (plastic surgery). Immediately after they have been received, the samples are incubated for 30 minutes at 37° C. in the presence of collagenase (supplied by the company Sigma). The adipocyte suspension is subsequently rinsed and diluted three times in the culture medium. The culture medium consists of: • 1.87 mg/ml bicarbonate (supplied by the company Life Technologies), • 25 IU/ml/25 μg/ml of penicillin/streptomycin (supplied by the company Life Technologies), • 2 mM of glutamine (supplied by the company Life Technologies), • 100% v/v of MEM (supplied by the company Merck Eurolab), and • 0.5% w/v of albumin of bovine origin (supplied by the company Sigma). Evaluation of Lipid Synthesis
# The adipocytes in suspension are incubated for 1 hour at 37° C. in the presence of various concentrations of OX100. The OX100 concentrations tested are 20 μM, 4 μM and 0.8 μM.
# A volume of 10 ml of radiolabelled acetate (2-C^14, 60.87 μCi/ml, supplied by the company Amersham) is subsequently added to the preparation.
# After incubation for 4 hours, the lipids are extracted according to the procedure described by Bligh and Dyer, Can J Biochem Physiol, 37, 922, (1959), (methanol/chloroform/water), and evaporated under nitrogen, and the radioactivity incorporated is quantified by liquid scintillation (liquid scintillation device reference LKB 1210, supplied by the company Rackbeta).
# The possible interaction between the radiolabelled acetate and the OX100 was evaluated in order to confirm the specificity of labeling, by incubating the highest concentration of OX100 (20 μM) with acetate alone.
# [3] = tested at 10 μM, 1 h preincubation, 4 h with 2-C14 acetate
SMILES,"decrease of the incorporation of acetate into lipids, % of the control (normal human adipocytes [1]; OX100 at 10 μM)","decrease of the incorporation of acetate into lipids, % of the control (normal human adipocytes [1]; OX100 at 20 μM)","decrease of the incorporation of acetate into lipids, % of the control (normal human adipocytes [1]; OX100 at 100 μM)",inhibitory activity on lipid synthesis (in words) (normal human adipocytes [1]; human adipocytes in culture),inhibition of lipogenesis in human adipocytes (in words) (normal human adipocytes [2]),"decrease of the incorporation of acetate, % of the control (normal human adipocytes [2]; OX100 at 4 μM, 4 h with 2-C14 acetate)","decrease of the incorporation of acetate, % of the control (normal human adipocytes [2]; OX100 at 20 μM, 4 h with 2-C14 acetate)",inhibition of the incorporation of acetate (inhibition/control) (normal human adipocytes [1]; [3]),inhibition of the incorporation of acetate (inhibition/control) (normal human adipocytes [2]; [3])
"CCCCCCCCCCCC1=NC(C)(C)CO1 [OX100, 2-undecyl-4,4-dimethyl-1,3-oxazoline]",35%,38%,39%,significant inhibitory activity,capable of inhibiting lipogenesis,25%,31%,,
"C/C=C/C/C=C/CCC(=O)[C@H]1O[C@H]1C(N)=O [ceruline, reference compound]",,,,,,,,75%,95%
